Results published in publication PMC6993007, “Protocol for bevacizumab purification using Ac-PHQGQHIGVSK-agarose” (MethodsX, 2019).

Experiments:
bevacizumab [1] = details: in words, Kd not given; ref [2]; cited from earlier work
From the text: Bevacizumab is a monoclonal antibody, produced in CHO cells, used for the treatment of many human cancers. It is an anti-vascular endothelial growth factor (antsi-VEGF) that blocks the growth of tumor blood vessels. Nowadays its purification is achieved by affinity chromatography (AC) using protein A which is a very expensive ligand. […] This short peptide ligand has higher stability and lower cost than protein A and it can be prepared very easily by solid phase peptide synthesis. The ...

bevacizumab [2] = experiment: Bevacizumab purification by Ac-PHQGQHIGVSK-agarose affinity chromatography from the CHO cell culture; details: in words; mild elution conditions
Experimental: Material • Adsorption buffer: 20 mM sodium phosphate, pH 7.0, 1 M (NH4)2SO4 • A column containing 0.5 mL (0.5 × 2.5 cm) of Ac-PHQGQHIGVSK-agarose • Elution buffer: 20 mM sodium phosphate, pH 7.0 • Absorption UV/VIS spectrophotometer
Procedure • 1 Clarify the CHO cell culture containing bevacizumab by centrifugation or filtration. • 2 Add to the sample the amount of (NH4)2SO4 necessary to achieve a final concentration of 1 M. • 3 Equilibrate the chromatographic column containing Ac-PHQGQHIGVSK-agarose with 20 volumes of adsorption buffer. • 4 Load the column with CHO cell culture filtrate containing bevacizumab. Note: the amount of bevacizumab loaded to the column must be lower than the maximum capacity of the chromatographic matrix synthesized. • 5 Wash the column with adsorption buffer until the absorbance at 280 nm achieves the baseline value. • 6 Elute the bound protein by adding 20 mM sodium phosphate, pH 7.0. • 7 Measure total protein concentration with Bradford reagent using pure bevacizumab as the protein standard. • 8 Measure bevacizumab concentration by HPLC using a protein A analytical column as per Zou et al.. • 9 Perform sodium dodecyl sulfate polyacrylamide gel electrophoresis (SDS-PAGE) (12.5 % under reductive conditions) as described by Laemmli and stain gels with Coomassie Blue following the standard procedure.

Substance | affinity for bevacizumab (bevacizumab [1]) | integrity of bevacizumab (mAb) (bevacizumab [2])
Ac-PHQGQHIGVSK-NH2 | binds bevacizumab with high affinity | 
bevacizumab: anti-vascular endothelial growth factor (anti-VEGF) monoclonal antibody, produced in CHO cells |  | preserve the integrity
